Source: patent US8541449B2, “Substituted isoquinolines and isoquinolinones as Rho kinase inhibitors” (Sanofi, priority 2008, dated 2013)

Assays:
Format in all cases: biochemical
[1] = molecular target: T1, human recombinant ROCK II (Homo sapiens, UniProt O75116); experiment: Determination of Rho kinase inhibition (Caliper peptide phosphorylation assay); settings: 60 min at 32° C., negative decadal logarithm of the IC50
T1 construct: N-terminal His6-tagged recombinant human ROCK-II residues 11-552; His6 (N); purchased Millipore GmbH, Schwalbach, Germany
T1 sequence (O75116 11-552): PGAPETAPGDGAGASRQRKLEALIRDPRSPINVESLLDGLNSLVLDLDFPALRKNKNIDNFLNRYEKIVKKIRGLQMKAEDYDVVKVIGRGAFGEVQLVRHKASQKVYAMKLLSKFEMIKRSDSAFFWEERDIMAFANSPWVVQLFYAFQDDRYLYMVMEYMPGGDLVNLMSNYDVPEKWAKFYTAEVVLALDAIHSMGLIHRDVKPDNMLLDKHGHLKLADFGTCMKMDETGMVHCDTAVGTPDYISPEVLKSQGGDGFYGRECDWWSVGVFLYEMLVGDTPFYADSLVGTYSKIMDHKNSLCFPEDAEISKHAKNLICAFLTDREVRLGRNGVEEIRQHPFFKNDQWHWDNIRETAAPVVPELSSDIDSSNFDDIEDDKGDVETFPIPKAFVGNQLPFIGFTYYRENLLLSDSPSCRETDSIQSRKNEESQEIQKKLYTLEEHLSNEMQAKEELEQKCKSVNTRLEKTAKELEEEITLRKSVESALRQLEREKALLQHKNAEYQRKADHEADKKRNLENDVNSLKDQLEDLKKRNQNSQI
In short: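 His6-tagged human ROCK II (residues 11-552) phosphorylated a fluorescein-labelled peptide for 60 min at 32° C in Tris-HCl pH 7.4 with MgCl2, DTT and BSA, using 3 μM peptide and 120 μM ATP as diluted stocks. EDTA-stopped; phosphopeptide separated and detected by Caliper mobility shift; IC50 determined.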

recombinant human PKA = molecular target: T2, recombinant human PKA (Homo sapiens, UniProt P17612); experiment: Determination of Protein Kinase A inhibition (Caliper peptide phosphorylation assay); settings: recombinant human PKA versus ROCK II
T2 construct: Active recombinant human PKA (residues 1-351, N-terminal His-tag); His-tag (N); purchased Invitrogen, Karlsruhe, Germany
In short: (§1)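 Full-length His-tagged PKG1-beta (150 ng/ml working) or His-tagged PKA residues 1-351 (30 ng/ml working) was mixed with compound in pH 7.4 Tris/MgCl2/DTT buffer. Fluorescein-peptide substrate and ATP (3 μM and 120 μM working) were then added for 60 min at 32 °C before an EDTA stop. Phosphopeptide was separated electrophoretically on a Caliper instrument to derive IC50.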

[2] = molecular target: T3, recombinant human PKG1-beta (Homo sapiens, UniProt Q13976); experiment: Determination of Protein Kinase G inhibition (Caliper peptide phosphorylation assay); settings: recombinant human PKG1-beta versus ROCK II
T3 construct: Active recombinant human PKG1-beta (full-length, with N-terminal His-tag); His-tag (N); purchased Millipore GmbH, Schwalbach, Germany
T3 sequence (Q13976 1-686 isoform Q13976-2): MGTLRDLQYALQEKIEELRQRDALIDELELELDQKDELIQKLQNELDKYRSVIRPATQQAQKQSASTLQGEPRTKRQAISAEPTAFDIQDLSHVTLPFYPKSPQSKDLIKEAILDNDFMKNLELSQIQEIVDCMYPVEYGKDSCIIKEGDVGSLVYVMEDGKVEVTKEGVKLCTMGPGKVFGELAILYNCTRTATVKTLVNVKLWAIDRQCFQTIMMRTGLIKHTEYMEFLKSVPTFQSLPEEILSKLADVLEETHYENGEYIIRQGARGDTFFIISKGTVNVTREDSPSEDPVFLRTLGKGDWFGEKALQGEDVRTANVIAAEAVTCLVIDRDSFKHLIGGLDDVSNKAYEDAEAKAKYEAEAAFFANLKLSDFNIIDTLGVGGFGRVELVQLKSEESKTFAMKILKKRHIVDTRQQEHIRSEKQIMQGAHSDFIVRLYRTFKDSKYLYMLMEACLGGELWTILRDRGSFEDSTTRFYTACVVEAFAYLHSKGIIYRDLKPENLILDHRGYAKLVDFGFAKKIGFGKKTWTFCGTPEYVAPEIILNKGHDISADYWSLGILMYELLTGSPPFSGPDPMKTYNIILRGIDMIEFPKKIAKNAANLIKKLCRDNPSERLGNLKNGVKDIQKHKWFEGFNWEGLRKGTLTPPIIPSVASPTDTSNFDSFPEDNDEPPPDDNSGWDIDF
In short: as §1

Row | IC50 [1] [nM] | Selectivity against PKA (recombinant human PKA) | Selectivity against PKG [2] | pIC50 [1] | Molecule
1 | 10 to 100 | >100 | >10 | – | CCC(N)C1CCC(Oc2cc3cc[nH]c(=O)c3cc2Cl)CC1 (single isomer, unassigned) [Example 129, 6-[4-(1-Amino-propyl)-cyclohexyoxy]-7-chloro-2H-isoquinolin-1-one]
2 | ≤ 10 | >1000 | >300 | – | NC(c1ccc(F)cc1)C1CCC(Oc2cc3cc[nH]c(=O)c3cc2Cl)CC1 (single isomer, unassigned) [Example 37, 6-{4-[Amino-(4-fluoro-phenyl)-methyl]-cyclohexyloxy}-7-chloro-2H-isoquinolin-1-one]
3 | – | >300 | >10 | ++++++ (7.0≦pIC50<8.0) | CCC(N)[C@]1(c2ccccc2)CC[C@H](Oc2cc3cc[nH]c(=O)c3cc2C)CC1 (stereo partly drawn) [Example 11, cis-6-[4-(1-Amino-propyl)-4-phenyl-cyclohexyloxy]-7-methyl-2H-iso quinolin-1-one]
4 | – | >1000 | >300 | +++++++ (8.0≦pIC50) | CCC(N)[C@]1(c2ccc(F)c(F)c2)CC[C@H](Oc2cc3cc[nH]c(=O)c3cc2Cl)CC1 (stereo partly drawn) [Example 59, cis-6-[4-(1-Amino-propyl)-4-(3,4-difluoro-phenyl)-cyclohexyloxy]-7-chloro-2H-isoquinolin-1-one]
5 | 10 to 100 | >100 | >10 | – | CCCC(C)(N)C1CCC(Oc2cc3cc[nH]c(=O)c3cc2Cl)CC1 (single isomer, unassigned) [Example 121, 6-{4-[1-Amino-1-n-propyl-ethyl]-cyclohexyloxy}-7-chloro-2H-isoquinolin-1-one]
6 | – | >1000 | >1000 | +++++++ (8.0≦pIC50) | NC(CF)[C@]1(c2ccc(F)cc2)CC[C@H](Oc2cc3cc[nH]c(=O)c3cc2Cl)CC1 (stereo partly drawn) [Example 114, cis-6-[4-(1-Amino-2-fluoro-ethyl)-4-(4-fluoro-phenyl)-cyclohexyloxy]-7-chloro-2H-isoquinolin-1-one]
7 | – | >10 | >10 | +++++ (6.0≦pIC50<7.0) | CCC(N)[C@]1(c2cc(F)cc(F)c2)CC[C@H](Oc2cc3cc[nH]c(=O)c3cc2F)CC1 (stereo partly drawn) [Example 66]
8 | – | >1000 | >300 | +++++++ (8.0≦pIC50) | CCC(N)[C@]1(c2ccccc2OC)CC[C@H](Oc2cc3cc[nH]c(=O)c3cc2Cl)CC1 (stereo partly drawn) [Example 69, cis-6-[4-(1-Amino-propyl)-4-(2-methoxy-phenyl)-cyclohexyloxy]-7-chloro-2H isoquinolin-1-one]
9 | – | >1000 | >300 | +++++++ (8.0≦pIC50) | CC(N)[C@]1(c2ccccc2)CC[C@H](Oc2cc3cc[nH]c(=O)c3cc2Cl)CC1 (stereo partly drawn) [Example 24, cis-6-[4-(1-Amino-ethyl)-4-phenyl-cyclohexyloxy]-7-chloro-2H-iso quinolin-1-one]
10 | – | >10 | >10 | +++++ (6.0≦pIC50<7.0) | NC(c1ccccc1)C1CCC(Oc2cc3cc[nH]c(=O)c3cc2Cl)CC1 (stereo not drawn) [Example 128, 6-[4-(amino-phenyl-methyl)-cyclohexyloxy]-7-chloro-2H-isoquinolin-1-one]
11 | – | >1000 | >1000 | +++++++ (8.0≦pIC50) | cis-6-[4-(1- Amino-propyl)-4- (3-bromo- phenyl)-cyclo hexyloxy]-7- chloro-2H-iso quinolin-1-one [Example 29]
12 | – | >300 | >10 | ++++++ (7.0≦pIC50<8.0) | CCC(N)C1CCC(Oc2cc3cc[nH]c(=O)c3cc2Cl)CC1 (single isomer, unassigned) [Example 130, 6-[4-(1-Amino-propyl)-cyclohexyloxy]-7-chloro-2H-isoquinolin-1-one]
13 | – | >10 | >10 | +++++ (6.0≦pIC50<7.0) | CCC(N)[C@]1(c2cccc(C(F)(F)F)c2)CC[C@H](Oc2cc3cc[nH]c(=O)c3cc2C)CC1 (stereo partly drawn) [Example 86, cis-6-[4-(1-Amino-propyl)-4-(3-trifluoromethyl-phenyl)-cyclohexyloxy]-7-methyl-2H-iso quinolin-1-one]
14 | – | >1000 | >1000 | +++++++ (8.0≦pIC50) | NC(C1CC1)[C@]1(c2ccc(F)cc2)CC[C@H](Oc2cc3cc[nH]c(=O)c3cc2Cl)CC1 (stereo partly drawn) [Example 82, cis-6-[4-(Amino-cyclopropyl-methyl)-4-(4-fluoro-phenyl)-cyclohexyloxy]-7-chloro-2H-isoquinolin-1-one]
15 | 100 to 1000 | >10 | >10 | – | NC(C1CCC(Oc2cc3cc[nH]c(=O)c3cc2Cl)CC1)C1CC1 (single isomer, unassigned) [Example 131, 6-[4-(Amino-cyclopropyl-methyl)-cyclohexyloxy]-7-chloro-2H-isoquinolin-1-one]
16 | – | >1000 | >300 | +++++++ (8.0≦pIC50) | CCC(N)[C@]1(c2ccc(C#N)cc2)CC[C@H](Oc2cc3cc[nH]c(=O)c3cc2Cl)CC1 (stereo partly drawn) [Example 97, cis-4-[1-(1-Amino-propyl)-4-(7-chloro-1-oxo-1,2-dihydro-isoquinolin-6-yloxy)-cyclohexyl]benzonitrile]
17 | – | >1000 | >1000 | +++++++ (8.0≦pIC50) | CCC(N)[C@@]1(c2ccccc2)C[C@@H]2C[C@H]1CC2Oc1cc2cc[nH]c(=O)c2cc1Cl (stereo partly drawn) [Example 100, 6-[(1S,4S,5S)-5-(1-Amino-propyl)-5-phenyl-bicyclo[2.2.1]hept-2-yloxy]-7-chloro-2H-isoquinolin-1-one]

Row | Molecule | IC50 [1] [nM] | Selectivity against PKA (recombinant human PKA) | Selectivity against PKG [2] | pIC50 [1]
18 | CCC(N)[C@]1(c2ccc(F)cc2)CC[C@H](Oc2cc3cc[nH]c(=O)c3cc2Cl)CC1 (stereo partly drawn) [Example 1, cis-6-[4-(1-Amino-propyl)-4-(4-fluoro-phenyl)-cyclohexyloxy]-7-chloro-2H-isoquinolin-1-one] | – | >1000 | >1000 | +++++++ (8.0≦pIC50)
19 | COc1ccc(C(N)[C@H]2CC[C@@H](Oc3cc4cc[nH]c(=O)c4cc3Cl)CC2)cc1 (single isomer, unassigned) [Example 35, 6-{4-[Amino-(4-methoxy-phenyl)-methyl]-cyclohexyloxy}-7-chloro-2H-isoquinolin-1-one] | ≤ 10 | >1000 | >100 | –
20 | CCC(N)[C@]1(c2cccc(S(C)(=O)=O)c2)CC[C@H](Oc2cc3cc[nH]c(=O)c3cc2Cl)CC1 (stereo partly drawn) [Example 99, cis-6-[4-(1-Amino-propyl)-4-(3-methanesulfonyl-phenyl)-cyclohexyloxy]-7-chloro-2H-isoquinolin-1-one] | – | >1000 | >100 | +++++++ (8.0≦pIC50)
21 | CCC(N)[C@]1(c2ccccc2)CC[C@H](Oc2cc3cc[nH]c(=O)c3cc2Cl)CC1 (stereo partly drawn) [Example 3, cis-6-{[4-(1-aminopropyl)-4-phenylcyclohexyl]oxy}-7-chloro-2H-isoquinolin-1-one] | – | >1000 | >300 | +++++++ (8.0≦pIC50)
22 | CCC(N)[C@]1(c2cc(F)cc(F)c2)CC[C@H](Oc2cc3cc[nH]c(=O)c3cc2Cl)CC1 (stereo partly drawn) [Example 58, cis-6-[4-(1-Amino-propyl)-4-(3,5-difluoro-phenyl)-cyclohexyloxy]-7-chloro-2H-isoquinolin-1-one] | – | >1000 | >100 | +++++++ (8.0≦pIC50)
23 | CCCC(N)[C@]1(c2ccc(F)cc2)CC[C@H](Oc2cc3cc[nH]c(=O)c3cc2Cl)CC1 (stereo partly drawn) [Example 5, cis-6-[4-(1-Amino-butyl)-4-(4-fluoro-phenyl)-cyclo-hexyloxy]-7-chloro-2H-isoquinolin-1-one] | – | >1000 | >300 | +++++++ (8.0≦pIC50)
